One experiment concerns lung fibrosis. Nature of the experiment: In vivo screening: bleomycin-treated spontaneous hypertensive rats, lung fibrosis quantitated by histomorphometry (Masson Trichrome). The following applies: SHR given bleomycin at 14 weeks, 500 pmol/kg/min in drinking solution (5% ethanol) for 4 weeks from 16 weeks of age; for Fibrosis in the lung compared to 16 week controls: vs 16 week control (reversal of established fibrosis); for Fibrosis in the lung compared to 20 week controls: vs 20 week vehicle control (prevention). The protocol:
Fourteen week old spontaneous hypertensive rats (SHR) were anaesthetised using 3% isoflurane, the tongue was gently pulled forward and bleomycin […] in 200 μL of normal saline placed in the distal oropharynx using a micropipette while the nose is gently closed. Rats were then left to recover from anaesthesia. At 16 weeks of age SHR were randomised to control (16 weeks or 20 weeks) or treated groups. The 16 week controls were anaesthetised and had blood sampled and tissues harvested. The 20 week controls received drinking solution alone (5% ethanol) while the treated groups received test compound dissolved in the drinking water with concentration adjusted twice weekly to maintain a dose of 500 pmol/kg/min for 4 weeks. At 20 weeks of age rats were anaesthetised and had blood sampled and tissues harvested.
For histological examination lungs were fixed in formalin and sections from each of two levels were stained using Masson Trichrome. Fibrosis was quantitated by histomorphometry by an observer blinded to experimental group.

Experiment [1] has as its system human small airway epithelial cells. As to the kind of experiment: In vitro screening: xCELLigence SP cellular impedance (cell index). The class given is cell-based. The following applies: 10 μM, 20 μM or 30 μM test compound, 0.25% DMSO, measured every 20 seconds for 3 hours. The method, then:
The xCELLigence SP system (Roche) was used to measure changes in cellular impedance (cell index) following the treatment of human small airway epithelial cells (ATCC) with test compound.
Briefly, 50 μl of cell culture medium (DMEM low glucose supplemented with 15% fetal bovine serum at 37° C.) was added to each well of an E-Plate 96 (Roche), and the background impedance in each well was measured. 50 μl of human small airway epithelial cell suspension (10,000 cells/well) was then added to the appropriate wells of the E-Plate 96. Cell index was monitored for each well of the E-Plate 96 in a RTCA SP Station within the cell culture incubator. After overnight incubation for 16-20 hours at 5% CO2 and 95% humidity, 100 μl of test compound solution (test compounds were prepared in DMSO and diluted with cell culture medium to a concentration of 10 μM, 20 μM or 30 μM of test compound with a final DMSO concentration of 0.25%) was added to the appropriate wells of the E-Plate 96 and cell index values were measured immediately following compound treatment every 20 seconds for 3 hours. Cell index value is baseline-corrected by subtracting the cell index of vehicle-treated cells and normalized by dividing by the cell index at the time point immediately before compound addition. Baseline normalized cell index as a function of time is plotted using Roche RTCA software.

Each structure is given as a SMILES string.

On to `NC(CCc1cc(-c2ccccc2)ccc1-c1cccc(O)c1)C(F)(F)F` (stereo not drawn) [A6], for which, in the experiment on lung fibrosis, the “Fibrosis in the lung compared to 16 week controls” value was “decreased” and the “Fibrosis in the lung compared to 20 week controls” value is given as “decreased”. Besides, the “Cellular impedance (baseline normalized cell index) response” value in experiment [1] is recorded as “Negative impedance responses”.

In the case of `O=C1NCCC1Cc1cc(-c2ccccc2)ccc1-c1cccc(O)c1` (stereo not drawn) [A26], the “Cellular impedance (baseline normalized cell index) response” value in experiment [1] is on record as “Negative impedance responses”.

In the case of `O=C1NCC/C1=C\c1cc(-c2ccccc2)ccc1-c1cccc(O)c1` [A27], in experiment [1], the “Cellular impedance (baseline normalized cell index) response” value is given as “Negative impedance responses”.

For the molecule `O=C1CC(Cc2cc(-c3ccccc3)ccc2-c2cccc(O)c2)C(=O)N1` (stereo not drawn) [A30], the “Cellular impedance (baseline normalized cell index) response” value in experiment [1] is “Negative impedance responses”.

`O=C1NC(=O)C(Cc2cc(-c3ccccc3)ccc2-c2cccc(O)c2)N1` (stereo not drawn) [A32]: in the experiment on lung fibrosis, the “Fibrosis in the lung compared to 16 week controls” value was “decreased” and the “Fibrosis in the lung compared to 20 week controls” value is recorded as “decreased”. Besides, in experiment [1], the “Cellular impedance (baseline normalized cell index) response” value is “Negative impedance responses”.

Consider `Nc1nocc1Cc1cc(-c2ccccc2)ccc1-c1cccc(O)c1` [A35], for which the “Cellular impedance (baseline normalized cell index) response” value in experiment [1] was “Negative impedance responses”.

`NOCCc1cc(-c2ccccc2)ccc1-c1cccc(O)c1` [A56]: in experiment [1], the “Cellular impedance (baseline normalized cell index) response” value was “Negative impedance responses”.

Consider `O=C1NC(=O)C(Cc2cc(-c3ccccc3)ccc2-c2cccc(O)c2)O1` (stereo not drawn) [A79], for which, in the experiment on lung fibrosis, the “Fibrosis in the lung compared to 16 week controls” value is on record as “decreased” and the “Fibrosis in the lung compared to 20 week controls” value is “decreased”. For the same molecule, the “Cellular impedance (baseline normalized cell index) response” value in experiment [1] is reported as “Negative impedance responses”.

Turning to `CS(=O)(=O)Nc1cc(NS(C)(=O)=O)cc(-c2ccc(-c3cncnc3)cc2CCC(N)=O)c1` [D4], in experiment [1], the “Cellular impedance (baseline normalized cell index) response” value was “Negative impedance responses”.

For `CCOC(=O)C(Cc1cc(-c2cncnc2)ccc1-c1cc(N)ncn1)C(=O)OCC` [D5, Diethyl (2-(6-aminopyrimidin-4-yl)-5-(pyrimidin-5-yl)benzyl)propanedioate], the “Cellular impedance (baseline normalized cell index) response” value in experiment [1] was “Negative impedance responses”.

Regarding `NC(=O)CCc1cc(-c2cncnc2)ccc1-c1cc(N)ncn1` [D6, 3-(2-(6-Aminopyrimidin-4-yl)-5-(pyrimidin-5-yl)phenyl)propanamide], in the experiment with lung fibrosis, the “Fibrosis in the lung compared to 16 week controls” value was “decreased” and the “Fibrosis in the lung compared to 20 week controls” value is on record as “decreased”. Also, in experiment [1], the “Cellular impedance (baseline normalized cell index) response” value is “Negative impedance responses”.

Consider `CS(=O)(=O)Nc1cc(NS(C)(=O)=O)cc(-c2ccc(-c3cccnn3)cc2CCC(N)=O)c1` [D10], for which the “Cellular impedance (baseline normalized cell index) response” value in experiment [1] is “Negative impedance responses”.

As for `CS(=O)(=O)Nc1cc(-c2ccc(-c3cccnn3)cc2CCC(N)=O)ccn1` [D11, 3-(2-(2-((Methylsulfonyl)amino)pyridin-4-yl)-5-(pyridazin-3-yl)phenyl)propanamide], the “Cellular impedance (baseline normalized cell index) response” value in experiment [1] is reported as “negative deflection”.

For `NC(=O)CCc1cc(-c2cccnn2)ccc1-c1cc(N)ncn1` [D12, 3-(2-(6-Aminopyrimidin-4-yl)-5-(pyridazin-3-yl)phenyl)propanamide], the “Cellular impedance (baseline normalized cell index) response” value in experiment [1] is given as “Negative impedance responses”.

On to `CS(=O)(=O)NC1=CC(c2cccc(NS(C)(=O)=O)c2)(c2cnccn2)CC(CCC(N)=O)=C1` (stereo not drawn) [D16, 3-(3′,5-Bis((methylsulfonyl)amino)-1-(pyrazin-2-yl)biphenyl-3-yl)propanamide], for which, in experiment [1], the “Cellular impedance (baseline normalized cell index) response” value is “Negative impedance responses”.

For the molecule `CS(=O)(=O)Nc1cc(-c2ccc(-c3cnccn3)cc2CCC(N)=O)ccn1` [D17, 3-[2-(2-[(Methylsulfonyl)amino]pyridin-4-yl)-5-(pyrazin-2-yl)phenyl]propanamide], the “Cellular impedance (baseline normalized cell index) response” value in experiment [1] was “Negative impedance responses”.

For `NC(=O)CCc1cc(-c2cnccn2)ccc1-c1cc(N)ncn1` [D18, 3-(2-(6-Aminopyrimidin-4-yl)-5-(pyrazin-2-yl)phenyl)propanamide], the “Cellular impedance (baseline normalized cell index) response” value in experiment [1] is reported as “Negative impedance responses”.

As for `CS(=O)(=O)Nc1cccc(-c2ccc(-c3cccnc3)cc2CCC(N)=O)c1` [D28, 3-(3′-((Methylsulfonyl)amino)-4-(pyridin-3-yl)biphenyl-2-yl)propanamide], in experiment [1], the “Cellular impedance (baseline normalized cell index) response” value is listed as “Negative impedance responses”.

Turning to `NC(=O)CCc1cc(-c2cccnc2)ccc1-c1ccc2[nH]c(=O)[nH]c2c1` [D30, 3-(2-(2-Oxo-2,3-dihydro-1H-benzimidazol-5-yl)-5-(pyridin-3-yl)phenyl)propanamide], in the experiment with lung fibrosis, the “Fibrosis in the lung compared to 16 week controls” value was “decreased” and the “Fibrosis in the lung compared to 20 week controls” value is given as “decreased”. Further, in experiment [1], the “Cellular impedance (baseline normalized cell index) response” value is “Negative impedance responses”.

Consider `CNS(=O)(=O)Nc1cccc(-c2ccc(-c3cccnc3)cc2CCC(N)=O)c1` [D31, 3-(3′-((Methylsulfamoyl)amino)-4-(pyridin-3-yl)biphenyl-2-yl)propanamide], for which the “Cellular impedance (baseline normalized cell index) response” value in experiment [1] is listed as “Negative impedance responses”.

On to `Cc1nc(C)c(-c2ccc(-c3cccc(NS(C)(=O)=O)c3)c(CCC(N)=O)c2)s1` [D32, 4-(2,4-Dimethyl-1,3-thiazol-5-yl)-3-(3′-((methylsulfonyl)amino)biphenyl-2-yl)propanamide], for which the “Cellular impedance (baseline normalized cell index) response” value in experiment [1] is “Negative impedance responses”.

`CS(=O)(=O)Nc1cccc(-c2ccc(-c3ccc(F)cc3)cc2CCC(N)=O)c1` [D35, 3-(4″-Fluoro-3-((methylsulfonyl)amino)-1,1′:4′,1″-terphenyl-2′-yl)propanamide]: the “Cellular impedance (baseline normalized cell index) response” value in experiment [1] is recorded as “Negative impedance responses”.

Regarding `NC(=O)CCc1cc(-c2cccnc2)ccc1-c1cccc(NC(=O)Nc2cccc(-c3ccc(-c4cccnc4)cc3CCC(N)=O)c2)c1` [D167], the “Cellular impedance (baseline normalized cell index) response” value in experiment [1] was “Negative impedance responses”.

As for `NC(=O)C=Cc1cc(-c2cncnc2)ccc1-c1ccnc(N)c1` [D171, 3-[2-(2-Aminopyridin-4-yl)-5-(pyrimidin-5-yl)phenyl]propenamide], in experiment [1], the “Cellular impedance (baseline normalized cell index) response” value is recorded as “Negative impedance responses”.

With `NC(=O)C=Cc1cc(-c2cncnc2)ccc1-c1cc(N)cc(N)c1` [D172, 3-(2-(3,5-Diaminophenyl)-5-(pyrimidin-5-yl)phenyl)propenamide], the “Cellular impedance (baseline normalized cell index) response” value in experiment [1] was “Negative impedance responses”.

`NC(=O)CCc1cc(-c2cnccn2)ccc1-c1cccc(O)c1` [P13, 3-[3′-Hydroxy-4-(pyrazin-2-yl)biphenyl-2-yl]propanamide]: in the experiment on lung fibrosis, the “Fibrosis in the lung compared to 20 week controls” value is listed as “decreased”. Moreover, in experiment [1], the “Cellular impedance (baseline normalized cell index) response” value is given as “Negative impedance responses”.

As for `NC(=O)CCc1cc(-c2cccnn2)ccc1-c1cccc(O)c1` [P14, 3-[3′-Hydroxy-4-(pyridazin-3-yl)biphenyl-2-yl]propanamide], in experiment [1], the “Cellular impedance (baseline normalized cell index) response” value is given as “Negative impedance responses”.

Turning to `NC(=O)CCc1cc(-c2ccncn2)ccc1-c1cccc(O)c1` [P25, 3-[3′-Hydroxy-4-(pyrimidin-4-yl)biphenyl-2-yl]propanamide], in experiment [1], the “Cellular impedance (baseline normalized cell index) response” value is given as “Negative impedance responses”.

In the case of `Cc1n[nH]c(C)c1-c1ccc(-c2cccc(O)c2)c(CCC(N)=O)c1` [P42], the “Cellular impedance (baseline normalized cell index) response” value in experiment [1] is reported as “Negative impedance responses”.

Regarding `Cc1ccsc1-c1ccc(-c2cccc(O)c2)c(CCC(N)=O)c1` [P43], the “Cellular impedance (baseline normalized cell index) response” value in experiment [1] is “Negative impedance responses”.

`Cc1cscc1-c1ccc(-c2cccc(O)c2)c(CCC(N)=O)c1` [P44]: the “Cellular impedance (baseline normalized cell index) response” value in experiment [1] is recorded as “Negative impedance responses”.

Regarding `NC(=O)CCc1cc(-c2ccccc2)ccc1-c1cccc(O)c1` [VB0004], in the experiment on lung fibrosis, the “Fibrosis in the lung compared to 16 week controls” value was “decreased” and the “Fibrosis in the lung compared to 20 week controls” value was “decreased”. Further, the “Cellular impedance (baseline normalized cell index) response” value in experiment [1] was “Negative impedance responses”.

The record behind these values is patent US20190270712A1, “COMPOSITIONS FOR THE TREATMENT OF PULMONARY FIBROSIS” (Vectus Biosystems Limited, priority 2016, published 2019).
